This passage reports IC50 results from US9481654B2, “Compositions and methods for inhibition of the JAK pathway” (Rigel Pharmaceuticals, Inc., priority 2006, dated 2016).

As usually defined, the IC50 is the concentration needed to halve the response being measured. A lower IC50 goes with greater potency in that assay.

For experiment [1], the system named is IL-4 stimulated CD23 upregulation in human Ramos B cells (JAK-1/JAK-3, Stat-6). Description: Assay for Ramos B-Cell Line Stimulated with IL-4 (CD23 upregulation, FACS). The experiment is classed as cell-based. The following applies: Table III Example 3. A digest of the protocol: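 Log-phase Ramos B cells (5×10^4 per point, RPMI with 5% serum) pre-incubated with compound or DMSO 1 h at 37° C, then stimulated with IL-4 at 50 units/mL final for 20-24 h. CD23 upregulation measured by staining and flow cytometry.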

Experiment [2] relates to primary human T-cells (IL-2 induced proliferation, JAK-1/JAK-3, Stat-5). Description: Primary Human T-Cell Proliferation Assay Stimulated with IL-2 (CellTiter-Glo). In kind it is cell-based. Particulars: Table III Example 4. The essentials:
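Pre-activated peripheral-blood T-cells (TCR/CD28 stimulated, IL-2-maintained) were IL-2-depleted, then plated in Yssel's medium with 80 U/mL IL-2 in the cell suspension and compound in duplicate. Proliferation ran 72 h at 37 °C; viable cells quantified by CellTiter-Glo ATP luminescence, with IL-2-omitted wells as unstimulated control.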
(In general: ATP-based viability assays read luminescence as a measure of living cells.)

As for `Cc1cnc(Nc2cccc(S(=O)(=O)NCC3CC3)c2)nc1Nc1ccc(CNS(=O)(=O)C2CC2)cc1` [Compound I-180, N2-(3-cyclopropylmethylaminosulfonyl)phenyl-N4-(4-cyclopropylsulfonylaminomethyl)phenyl-5-methyl-2,4-pyrimidinediamine], the concentration for half-maximal inhibition (IC50) came out at 25.7 nM in experiment [1] and 148 nM in experiment [2].
Consider `COCCCNS(=O)(=O)c1ccc(Nc2ncc(C)c(Nc3ccc(CNS(=O)(=O)C4CC4)cc3)n2)cc1` [Compound I-181, N4-(4-cyclopropylsulfonylaminomethyl)phenyl-N2-[4-(3-methoxypropyl)aminosulfonyl]phenyl-5-methyl-2,4-pyrimidinediamine], for which the 50% inhibitory concentration (IC50) came to 73.1 nM in experiment [1] and 121 nM in experiment [2].
As to `COCCCNS(=O)(=O)c1cccc(Nc2ncc(C)c(Nc3ccc(CNS(=O)(=O)C4CC4)cc3)n2)c1` [Compound I-182, N4-(4-cyclopropylsulfonylaminomethyl)phenyl-N2-[3-(3-methoxypropyl)aminosulfonyl]phenyl-5-methyl-2,4-pyrimidinediamine], the results for the 50% inhibitory concentration (IC50) in experiment [1] and in experiment [2] were 25.7 nM and 55.1 nM, respectively.
For `COCCNS(=O)(=O)c1cccc(Nc2ncc(C)c(Nc3ccc(CNS(=O)(=O)C4CC4)cc3)n2)c1` [Compound I-184, N4-(4-cyclopropylsulfonylaminomethyl)phenyl-N2-[3-(2-methoxyethyl)aminosulfonyl]phenyl-5-methyl-2,4-pyrimidinediamine], in that order: 14.1 nM and 51.7 nM.
Take `CNS(=O)(=O)c1cc(Nc2ncc(C)c(Nc3ccc(CNS(=O)(=O)C4CC4)cc3)n2)ccc1C` [Compound I-185, N4-(4-cyclopropylsulfonylaminomethyl)phenyl-5-methyl-N2-(4-methyl-3-methylaminosulfonyl)phenyl-2,4-pyrimidinediamine]: the 50% inhibitory concentration (IC50) turned out to be 22.5 nM in experiment [1] and 41.1 nM in experiment [2].
For `CCNS(=O)(=O)c1cc(Nc2ncc(C)c(Nc3ccc(CNS(=O)(=O)C4CC4)cc3)n2)ccc1C` [Compound I-186, N4-(4-cyclopropylsulfonylaminomethyl)phenyl-N2-(3-ethylaminosulfonyl-4-methyl)phenyl-5-methyl-2,4-pyrimidinediamine], the concentration for half-maximal inhibition (IC50) in experiment [1] amounted to 19.5 nM; in experiment [2] it was 40 nM.
As for `CCCNS(=O)(=O)c1cc(Nc2ncc(C)c(Nc3ccc(CNS(=O)(=O)C4CC4)cc3)n2)ccc1C` [Compound I-187, N4-(4-cyclopropylsulfonylaminomethyl)phenyl-5-methyl-N2-(4-methyl-3-propylaminosulfonyl)phenyl-2,4-pyrimidinediamine], the IC50 is 72.4 nM in experiment [1] and 101 nM in experiment [2].
For `C#CCNS(=O)(=O)c1cc(Nc2ncc(C)c(Nc3ccc(CNS(=O)(=O)C4CC4)cc3)n2)ccc1C` [Compound I-188, N4-(4-cyclopropylsulfonylaminomethyl)phenyl-5-methyl-N2-(4-methyl-3-propargylaminosulfonyl)phenyl-2,4-pyrimidinediamine], in that order: 43.6 nM and 573 nM.
For `Cc1ccc(Nc2ncc(C)c(Nc3ccc(CNS(=O)(=O)C4CC4)cc3)n2)cc1S(=O)(=O)NC(C)C` [Compound I-189, N4-(4-cyclopropylsulfonylaminomethyl)phenyl-N2-(3-isopropylaminosulfonyl-4-methyl)phenyl-5-methyl-2,4-pyrimidinediamine], in that order: 35.2 nM and 34.4 nM.
The corresponding values for `COCCNS(=O)(=O)c1cc(Nc2ncc(C)c(Nc3ccc(CNS(=O)(=O)C4CC4)cc3)n2)ccc1C` [Compound I-190, N4-(4-cyclopropylsulfonylaminomethyl)phenyl-N2-[3-(2-methoxyethyl)aminosulfonyl-4-methyl]phenyl-5-methyl-2,4-pyrimidinediamine] are 72.6 nM and 101 nM.
Take `COCCCNS(=O)(=O)c1cc(Nc2ncc(C)c(Nc3ccc(CNS(=O)(=O)C4CC4)cc3)n2)ccc1C` [Compound I-191, N4-(4-cyclopropylsulfonylaminomethyl)phenyl-N2-[3-(3-methoxypropyl)aminosulfonyl-4-methyl]phenyl-5-methyl-2,4-pyrimidinediamine]: the IC50 in experiment [1] came out at 51.2 nM; in experiment [2], 79.9 nM.
The corresponding values for `Cc1ccc(Nc2ncc(C)c(Nc3ccc(CNS(=O)(=O)C4CC4)cc3)n2)cc1S(=O)(=O)NCC1CC1` [Compound I-192, N2-(3-cyclopropylmethylaminosulfonyl-4-methyl)phenyl-N4-(4-cyclopropylsulfonylaminomethyl)phenyl-5-methyl-2,4-pyrimidinediamine] are 54.7 nM and 43.4 nM.
The corresponding values for `Cc1ccc(Nc2ncc(C)c(Nc3ccc(CNS(=O)(=O)C4CC4)cc3)n2)cc1S(=O)(=O)NCc1ccccc1` [Compound I-195, N2-(3-benzylaminosulfonyl-4-methyl)phenyl-N4-(4-cyclopropylsulfonylaminomethyl)phenyl-5-methyl-2,4-pyrimidinediamine] are 66.4 nM and 104 nM.
With `Cc1ccc(Nc2ncc(C)c(Nc3ccc(CNS(=O)(=O)C4CC4)cc3)n2)cc1S(=O)(=O)Nc1ccccc1` [Compound I-202, N4-(4-cyclopropylsulfonylaminomethyl)phenyl-5-methyl-N2-(4-methyl-3-phenylaminosulfonyl)phenyl-2,4-pyrimidinediamine], the IC50 turned out to be 86.5 nM in experiment [1] and 184 nM in experiment [2].
Consider `CNS(=O)(=O)c1ccc(Nc2ncc(C)c(Nc3cccc(CNS(=O)(=O)C4CC4)c3)n2)cc1` [Compound I-207, N4-(3-cyclopropylsulfonylaminomethyl)phenyl-5-methyl-N2-(4-methylaminosulfonyl)phenyl-2,4-pyrimidinediamine], for which the IC50 in experiment [1] was 86.5 nM; in experiment [2], 158 nM.
`CCNS(=O)(=O)c1cccc(Nc2ncc(C)c(Nc3cccc(CNS(=O)(=O)C4CC4)c3)n2)c1` [Compound I-208, N4-(3-cyclopropylsulfonylaminomethyl)phenyl-N2-(3-ethylaminosulfonyl)phenyl-5-methyl-2,4-pyrimidinediamine]: the IC50 in experiment [1] turned out to be 74.3 nM; in experiment [2], 45.8 nM.
For `COCCNS(=O)(=O)c1cc(Nc2ncc(C)c(Nc3cccc(CNS(=O)(=O)C4CC4)c3)n2)ccc1C` [Compound I-210, N4-(3-cyclopropylsulfonylaminomethyl)phenyl-N2-[3-(2-methoxyethyl)aminosulfonyl-4-methyl]phenyl-5-methyl-2,4-pyrimidinediamine], in that order: 128 nM and 143 nM.
Turning to `Cc1cnc(Nc2ccc(S(N)(=O)=O)cc2)nc1Nc1ccc2c(c1)CCN(S(=O)(=O)C1CC1)C2` [II-1, N2-(4-aminosulfonyl)phenyl-N4-[(N-cyclopropylsulfonyl)-1,2,3,4-tetrahydroisoquinolin-6-yl]-5-methyl-2,4-pyrimidinediamine], the IC50 in experiment [1] came out at 42.3 nM; in experiment [2], 108 nM.
In the case of `Cc1ccc(Nc2ncc(C)c(Nc3ccc4c(c3)CCN(S(=O)(=O)C3CC3)C4)n2)cc1S(N)(=O)=O` [II-3, N2-(3-aminosulfonyl-4-methyl)phenyl-N4-[(N-cyclopropylsulfonyl)-1,2,3,4-tetrahydroisoquinolin-6-yl]-5-methyl-2,4-pyrimidinediamine], the IC50 in experiment [1] was found to be 19.4 nM; in experiment [2], 47.5 nM.
The corresponding values for `Cc1cnc(Nc2cccc(S(N)(=O)=O)c2)nc1Nc1ccc2c(c1)CN(S(=O)(=O)C1CC1)C2` [II-8, N2-(3-Aminosulfonyl-phenyl)-N4-[(2-cyclopropylsulfonyl)-isoindolin-5-yl]-5-methyl-2,4-pyrimidinediamine] are 97.9 nM and 147 nM.
